Source: publication PMC8073005, “Antifungal Activity and DNA Topoisomerase Inhibition of Hydrolysable Tannins from Punica granatum L” (International Journal of Molecular Sciences, 2021)
≈ marks a conversion by molar mass, not a printed value. Where “and” joins values, the source holds several entries; their conditions need not be identical. Identical values can stand only once. Like-named read-outs stand apart in the source and are kept apart here.

How the values were obtained:
[1] = molecular target: T1, topoisomerase I from Candida albicans (Candida albicans, UniProt Q00313); test: Topoisomerase I supercoiled DNA relaxation inhibition; assay type: biochemical
T1 sequence (Q00313 1-778): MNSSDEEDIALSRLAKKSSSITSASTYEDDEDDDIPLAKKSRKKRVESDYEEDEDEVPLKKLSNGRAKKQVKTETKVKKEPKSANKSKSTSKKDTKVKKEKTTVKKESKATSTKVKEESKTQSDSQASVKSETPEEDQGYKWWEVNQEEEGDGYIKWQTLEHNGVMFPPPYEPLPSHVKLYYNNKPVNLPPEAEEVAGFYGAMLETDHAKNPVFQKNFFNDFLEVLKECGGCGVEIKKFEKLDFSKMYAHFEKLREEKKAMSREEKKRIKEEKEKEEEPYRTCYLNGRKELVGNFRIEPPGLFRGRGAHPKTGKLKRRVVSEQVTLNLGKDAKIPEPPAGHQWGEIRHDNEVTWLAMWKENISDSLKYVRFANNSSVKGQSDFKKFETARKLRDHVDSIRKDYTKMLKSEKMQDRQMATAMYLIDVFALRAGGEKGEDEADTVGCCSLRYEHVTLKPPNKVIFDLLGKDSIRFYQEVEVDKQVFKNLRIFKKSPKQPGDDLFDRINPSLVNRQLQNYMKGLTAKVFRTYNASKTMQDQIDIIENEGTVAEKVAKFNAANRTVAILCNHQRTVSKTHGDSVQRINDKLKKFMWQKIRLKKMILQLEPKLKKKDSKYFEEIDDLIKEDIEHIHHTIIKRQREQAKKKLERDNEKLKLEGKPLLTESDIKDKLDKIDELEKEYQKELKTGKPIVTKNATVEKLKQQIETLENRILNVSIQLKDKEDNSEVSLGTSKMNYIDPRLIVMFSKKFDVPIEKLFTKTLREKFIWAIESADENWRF

[2] = system: Cryptococcus neoformans ATCC 11240; test: MIC, broth microdilution (human pathogens); assay type: cell-based; details: ATCC11240; Cryptococcus neoformans ATCC 11240; SDB, 30 °C, 48 h; read-out: Minimum inhibitory concentration (MIC)
[3] = system: Aspergillus brasiliensis ATCC 16404; test: MIC, broth microdilution (human pathogens); assay type: cell-based; details: ATCC16404; Aspergillus brasiliensis ATCC 16404; SDB, 30 °C, 48 h; read-out: Minimum inhibitory concentration (MIC)
Botrytis cinerea B2 = test: MIC, micro-spectrophotometric growth assay (phytopathogens); assay type: cell-based; details: Botrytis cinerea B2; PDB, 24 °C, dark; imazalil at label dose; read-out: Minimum inhibitory concentration (MIC)
Cryptococcus 67 = test: MIC, broth microdilution (human pathogens); assay type: cell-based; details: Cryptococcus 67; SDB, 30 °C, 48 h; read-out: Minimum inhibitory concentration (MIC)
Candida albicans 2 = test: MIC, broth microdilution (human pathogens); assay type: cell-based; details: Candida albicans 2; SDB, 30 °C, 48 h; read-out: Minimum inhibitory concentration (MIC)
[4] = system: Cryptococcus neoformans B 3501; test: MIC, broth microdilution (human pathogens); assay type: cell-based; details: B3501; Cryptococcus neoformans B 3501; SDB, 30 °C, 48 h; read-out: Minimum inhibitory concentration (MIC)
[5] = system: Saccharomyces cerevisiae 42; test: MIC, broth microdilution (human pathogens); assay type: cell-based; details: Saccharomyces cerevisiae 42; SDB, 30 °C, 48 h; read-out: Minimum inhibitory concentration (MIC)
Aspergillus candidus 3 = test: MIC, broth microdilution (human pathogens); assay type: cell-based; details: Aspergillus candidus 3; SDB, 30 °C, 48 h; read-out: Minimum inhibitory concentration (MIC)
[6] = system: Candida albicans ATCC 10321; test: MIC, broth microdilution (human pathogens); assay type: cell-based; details: ATCC10321; Candida albicans ATCC 10321; SDB, 30 °C, 48 h; read-out: Minimum inhibitory concentration (MIC)
Candida albicans H = test: MIC, broth microdilution (human pathogens); assay type: cell-based; details: Candida albicans H; SDB, 30 °C, 48 h; read-out: Minimum inhibitory concentration (MIC)
Candida strains = test: Agar Disk Diffusion Assay, Candida strains; assay type: cell-based; details: for share of Candida strains with inhibition zone from 21 to 30 mm: 25 μg; for zone of inhibition at 25 µg/disc: positive controls, for the stated share of Candida strains
Candida albicans 40 = test: MIC, broth microdilution (human pathogens); assay type: cell-based; details: Candida albicans 40; SDB, 30 °C, 48 h; read-out: Minimum inhibitory concentration (MIC)
Coniella granati M0_C2 = test: MIC, micro-spectrophotometric growth assay (phytopathogens); assay type: cell-based; details: Coniella granati M0_C2; PDB, 24 °C, dark; imazalil at label dose; read-out: Minimum inhibitory concentration (MIC)
[7] = system: Colletotrichum acutatum s.s. M146-2; test: as above; assay type: cell-based, Colletotrichum acutatum sensu stricto; details: Colletotrichum acutatum s.s. M146-2, PDB, 24 °C, dark, imazalil at label dose, read-out: Minimum inhibitory concentration (MIC)
Aspergillus candidus 25 = test: MIC, broth microdilution (human pathogens); assay type: cell-based; details: Aspergillus candidus 25; SDB, 30 °C, 48 h; read-out: Minimum inhibitory concentration (MIC)
[8] = system: other genera tested (other fungi strains); test: Agar Disk Diffusion Assay, other genera; assay type: cell-based; details: 100 µg
Procedure: The antifungal activity of pomegranate compounds was evaluated against 19 clinically isolated fungal strains, including nine belonging to Candida albicans species, two belonging to Aspergillus genus, one belonging to Cryptococcus genus, and one Saccharomyces cerevisiae. The C. albicans strains were isolated on CHROMID agar, Aspergillus and Cryptococcus genus were isolated on SDA-CAF and one Saccharomyces cerevisiae on SDA. All the isolates were confirmed by matrix-assisted laser desorption ionization (MALDI) time-of-flight mass spectrometry (TOF/MS). Strains from the American Type Culture Collection (ATCC) were included. All strains were maintained in SDB with 20% (w/v) glycerol at −80 °C until use and sub-cultured in SDA before each test.
The preliminary determination of the antifungal activity of the target compounds (punicalagin, punicalin, ellagic acid, and gallic acid) from pomegranate was carried out by means of the agar disk diffusion assay, according to the standard procedure of the Clinical and Laboratory Standards Institute, with slight modifications. Plates containing SDA were uniformly spread with 100 μL of 10^3 conidia/mL of each strain suspension. […] Disks containing fluconazole (25 μg), amphotericin B (25 μg) and DMSO (20 μL) were used as the positive and the negative control, respectively. The antifungal activity of pomegranate compounds was evaluated by measuring the diameter of the clear inhibition zone formed right around the disks after 48 h incubation at 30 ± 1 °C. The experiment was carried out in triplicate.

Candida albicans 1 = test: MIC, broth microdilution (human pathogens); assay type: cell-based; details: Candida albicans 1; SDB, 30 °C, 48 h; read-out: Minimum inhibitory concentration (MIC)
Candida zeylanoides 33 = test: MIC, broth microdilution (human pathogens); assay type: cell-based; details: Dujonia zeylanoides; Candida zeylanoides 33; SDB, 30 °C, 48 h; read-out: Minimum inhibitory concentration (MIC)
[9] = system: Alternaria alternata AL19; test: MIC, micro-spectrophotometric growth assay (phytopathogens); assay type: cell-based; details: Alternaria alternata AL19; PDB, 24 °C, dark; imazalil at label dose; read-out: Minimum inhibitory concentration (MIC)
Candida parapsilosis 7 = test: MIC, broth microdilution (human pathogens); assay type: cell-based; details: Lodderomyces parapsilosis; Candida parapsilosis 7; SDB, 30 °C, 48 h; read-out: Minimum inhibitory concentration (MIC)
Candida parapsilosis = test: MIC, broth microdilution (human pathogens); assay type: cell-based; details: Lodderomyces parapsilosis; Candida parapsilosis; SDB, 30 °C, 48 h; read-out: Minimum inhibitory concentration (MIC)
Candida albicans SC 5314 = test: MIC, broth microdilution (human pathogens); assay type: cell-based; details: SC5314; Candida albicans SC 5314; SDB, 30 °C, 48 h; read-out: Minimum inhibitory concentration (MIC)
Candida albicans 41 = test: MIC, broth microdilution (human pathogens); assay type: cell-based; details: Candida albicans 41; SDB, 30 °C, 48 h; read-out: Minimum inhibitory concentration (MIC)
[10] = system: Cryptococcus var. grubii H99 serotype A; test: MIC, broth microdilution (human pathogens); assay type: cell-based; details: Cryptococcus var. grubii H99 serotype A; SDB, 30 °C, 48 h; read-out: Minimum inhibitory concentration (MIC)
Candida albicans 44 = test: MIC, broth microdilution (human pathogens); assay type: cell-based; details: Candida albicans 44; SDB, 30 °C, 48 h; read-out: Minimum inhibitory concentration (MIC)

| Structure (SMILES) | MIC [2] [µM] | MIC [3] [µM] | MIC (Botrytis cinerea B2) | MIC (Cryptococcus 67) [µM] | MIC (Candida albicans 2) [µM] | MIC [4] [µM] | MIC [5] [µM] | MIC (Aspergillus candidus 3) [µM] | MIC [6] [µM] | MIC (Candida albicans H) [µM] | MIC (Candida albicans 40) [µM] | MIC (Aspergillus candidus 25) [µM] | MIC (Candida albicans 1) [µM] | MIC (Candida zeylanoides 33) [µM] | MIC (Candida parapsilosis 7) [µM] | MIC (Candida parapsilosis) [µM] | MIC (Candida albicans SC 5314) [µM] | MIC (Candida albicans 41) [µM] | MIC [10] [µM] | MIC (Candida albicans 44) [µM] | other results |
| --- | --- | --- | --- | --- | --- | --- | --- | --- | --- | --- | --- | --- | --- | --- | --- | --- | --- | --- | --- | --- | --- |
| CC[C@@]1(O)C(=O)OCc2c1cc1n(c2=O)Cc2cc3ccccc3nc2-1 [Camptothecin, camptothecin, reference compound] | – | – | – | – | – | – | – | – | – | – | – | – | – | – | – | – | – | – | – | – | IC50 [1]: 17.8 ± 0.7 µM |
| O=C(O)c1cc(O)c(O)c(O)c1 [Gallic Acid, gallic acid] | 4.4 (≈ 0.749 µg/mL) | 8.8 (≈ 1.5 µg/mL) | 587.8 µM and 588 µM | 8.8 (≈ 1.5 µg/mL) | 294 (≈ 50 µg/mL) | 4.4 (≈ 0.749 µg/mL) | 588 (≈ 100 µg/mL) | 17.6 (≈ 2.99 µg/mL) | 294 (≈ 50 µg/mL) | 588 (≈ 100 µg/mL) | 588 (≈ 100 µg/mL) | 17.6 (≈ 2.99 µg/mL) | 294 (≈ 50 µg/mL) | 588 (≈ 100 µg/mL) | 588 (≈ 100 µg/mL) | 294 (≈ 50 µg/mL) | 294 (≈ 50 µg/mL) | 294 (≈ 50 µg/mL) | 4.4 (≈ 0.749 µg/mL) | 294 (≈ 50 µg/mL) | share of Candida strains with inhibition zone from 11 to 20 mm (Candida strains; 100 µg): 73%; MIC (Coniella granati M0_C2): 587.8 µM and 588 µM; MIC [7]: 587.8 µM (≈ 100 µg/mL); MIC ([7]; S.S.M1462): 588 µM (≈ 100 µg/mL); share of other fungi strains with inhibition zone from 11 to 20 mm [8]: 25%; MIC [9]: 587.8 µM and 588 µM |
| C[C@@H]1[C@H](O)[C@@H](C)/C=C/C=C/C=C/C=C/C=C/C=C/C=C/[C@H](O[C@@H]2O[C@H](C)[C@@H](O)[C@H](N)[C@@H]2O)C[C@@H]2O[C@](O)(C[C@@H](O)C[C@@H](O)[C@H](O)CC[C@@H](O)C[C@@H](O)CC(=O)O[C@H]1C)C[C@H](O)[C@H]2C(=O)O [Amphotericin B, amphotericin B, reference compound] | 0.1 (≈ 0.0924 µg/mL) | 0.1 (≈ 0.0924 µg/mL) | – | 0.1 (≈ 0.0924 µg/mL) | 4.3 (≈ 3.97 µg/mL) | 0.1 (≈ 0.0924 µg/mL) | 1.1 (≈ 1.02 µg/mL) | 0.3 (≈ 0.277 µg/mL) | 0.1 (≈ 0.0924 µg/mL) | 4.3 (≈ 3.97 µg/mL) | 0.3 (≈ 0.277 µg/mL) | 0.3 (≈ 0.277 µg/mL) | 2.2 (≈ 2.03 µg/mL) | 0.1 (≈ 0.0924 µg/mL) | 0.3 (≈ 0.277 µg/mL) | 0.1 (≈ 0.0924 µg/mL) | 0.1 (≈ 0.0924 µg/mL) | 0.3 (≈ 0.277 µg/mL) | 0.1 (≈ 0.0924 µg/mL) | 2.2 (≈ 2.03 µg/mL) | share of Candida strains with inhibition zone from 21 to 30 mm (Candida strains): 46%; zone of inhibition at 25 µg/disc (Candida strains): 21 to 30 mm |
| OC(Cn1cncn1)(Cn1cncn1)c1ccc(F)cc1F [Fluconazole, fluconazole, reference compound] | 4.9 (≈ 1.5 µg/mL) | 4.9 (≈ 1.5 µg/mL) | – | 9.8 (≈ 3 µg/mL) | 163 (≈ 50 µg/mL) | 4.9 (≈ 1.5 µg/mL) | 4.9 (≈ 1.5 µg/mL) | 9.8 (≈ 3 µg/mL) | 40.8 (≈ 12.5 µg/mL) | 81.6 (≈ 25 µg/mL) | 163 (≈ 50 µg/mL) | 9.8 (≈ 3 µg/mL) | 81.6 (≈ 25 µg/mL) | 19.6 (≈ 6 µg/mL) | 19.6 (≈ 6 µg/mL) | 9.8 (≈ 3 µg/mL) | 9.8 (≈ 3 µg/mL) | 81.6 (≈ 25 µg/mL) | 4.9 (≈ 1.5 µg/mL) | 81.6 (≈ 25 µg/mL) | share of Candida strains with inhibition zone from 21 to 30 mm (Candida strains): 73%; zone of inhibition at 25 µg/disc (Candida strains): 21 to 30 mm |
| C=CCOC(Cn1ccnc1)c1ccc(Cl)cc1Cl (stereo not shown) [Imazalil, imazalil, reference compound] | – | – | 0.3 µM (≈ 0.0892 µg/mL) | – | – | – | – | – | – | – | – | – | – | – | – | – | – | – | – | – | MIC (Coniella granati M0_C2): 0.3 µM (≈ 0.0892 µg/mL); MIC ([7]; S.S.M1462): 0.3 µM (≈ 0.0892 µg/mL); MIC [9]: 0.3 µM (≈ 0.0892 µg/mL) |
